Results on two compounds are retold here after ChEMBL document CHEMBL5053551, “Structure-Based Design of Dual Partial Peroxisome Proliferator-Activated Receptor γ Agonists/Soluble Epoxide Hydrolase Inhibitors” (J Med Chem, 2021).

pEC50, pIC50: −log10 of the molar value.

Data set [1] can be described thus: Stability of compound in human liver microsomes assessed as half life at 10 uM preincubated for 5 mins in presence of NADPH regenerating system followed by microsomal addition and measured upto 60 mins by HPLC analysis. The settings on record: time 65 min. In kind it is ADME, Microsome. On the technique in general: Liver microsomes are vesicles of endoplasmic reticulum, rich in cytochrome P450 enzymes.

Data set [2] has as its target T1, Peroxisome proliferator-activated receptor gamma (Homo sapiens, UniProt P37231).
T1 sequence (P37231 whole entry): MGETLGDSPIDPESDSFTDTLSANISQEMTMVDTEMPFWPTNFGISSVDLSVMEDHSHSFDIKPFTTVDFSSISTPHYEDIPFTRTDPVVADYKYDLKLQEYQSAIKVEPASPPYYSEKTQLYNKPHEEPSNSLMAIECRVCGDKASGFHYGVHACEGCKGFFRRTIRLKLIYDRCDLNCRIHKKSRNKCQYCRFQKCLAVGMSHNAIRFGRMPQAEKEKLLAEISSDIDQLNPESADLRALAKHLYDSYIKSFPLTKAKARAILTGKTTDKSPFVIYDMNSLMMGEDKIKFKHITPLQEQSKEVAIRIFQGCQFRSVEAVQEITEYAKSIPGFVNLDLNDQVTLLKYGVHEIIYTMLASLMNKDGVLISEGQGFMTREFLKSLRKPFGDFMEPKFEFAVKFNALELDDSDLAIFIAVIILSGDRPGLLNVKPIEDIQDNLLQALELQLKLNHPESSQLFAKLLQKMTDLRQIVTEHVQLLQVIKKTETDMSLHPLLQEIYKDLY
Put plainly: Partial agonist activity at sGSF-PPARgamma (unknown origin) assessed as CBP-1 recruitment by HT-FRET assay.

Data set [3] has as its target T1, Peroxisome proliferator-activated receptor gamma. Put plainly: Partial agonist activity at recombinant sGSF-PPARgamma (unknown origin) assessed as reduction in rosiglitazone induced CBP-1 recruitment incubated for 1 hr by HTRF competitive assay.
Data set [4] relates to HepG2. Briefly: Cytotoxicity agianst human HepG2 cells assessed as reduction in cell viability at 10 to 30 uM after 48 hrs by WST-1 assay. In kind it is cell-based. Particulars: hepg2, 48 h, dose 10-30 µM; call rule not given here.
For data set [5], the target named is T2, Nuclear receptor subfamily 1 group I member 3 (Homo sapiens, UniProt Q14994).
T2 sequence (Q14994 whole entry): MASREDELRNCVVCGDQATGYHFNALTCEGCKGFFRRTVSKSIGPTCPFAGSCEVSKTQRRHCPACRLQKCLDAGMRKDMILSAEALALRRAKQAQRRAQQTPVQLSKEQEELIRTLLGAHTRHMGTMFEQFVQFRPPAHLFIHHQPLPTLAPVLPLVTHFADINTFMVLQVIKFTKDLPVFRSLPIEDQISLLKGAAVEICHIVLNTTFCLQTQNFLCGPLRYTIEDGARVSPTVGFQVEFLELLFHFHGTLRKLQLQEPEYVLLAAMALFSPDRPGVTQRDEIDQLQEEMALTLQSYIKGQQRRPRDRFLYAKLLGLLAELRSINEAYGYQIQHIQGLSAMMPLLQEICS
Briefly: Partial agonist activity at GAL4-tagged human CAR LBD expressed in HEK293T cells at 3 uM incubated for 12 to 14 hrs by dual-Glo luciferase assay. In kind it is cell-based. The settings on record: time 12-14 hrs.

Data set [6] concerns the target T1, Peroxisome proliferator-activated receptor gamma. Briefly: Partial agonist activity at GAL4-tagged human PPARgamma LBD expressed in HEK293T cells incubated for 12 to 14 hrs by dual-Glo luciferase assay. In kind it is cell-based.
The target of data set [7] is T3, Bifunctional epoxide hydrolase 2 (Homo sapiens, UniProt P34913).
T3 sequence (P34913 whole entry): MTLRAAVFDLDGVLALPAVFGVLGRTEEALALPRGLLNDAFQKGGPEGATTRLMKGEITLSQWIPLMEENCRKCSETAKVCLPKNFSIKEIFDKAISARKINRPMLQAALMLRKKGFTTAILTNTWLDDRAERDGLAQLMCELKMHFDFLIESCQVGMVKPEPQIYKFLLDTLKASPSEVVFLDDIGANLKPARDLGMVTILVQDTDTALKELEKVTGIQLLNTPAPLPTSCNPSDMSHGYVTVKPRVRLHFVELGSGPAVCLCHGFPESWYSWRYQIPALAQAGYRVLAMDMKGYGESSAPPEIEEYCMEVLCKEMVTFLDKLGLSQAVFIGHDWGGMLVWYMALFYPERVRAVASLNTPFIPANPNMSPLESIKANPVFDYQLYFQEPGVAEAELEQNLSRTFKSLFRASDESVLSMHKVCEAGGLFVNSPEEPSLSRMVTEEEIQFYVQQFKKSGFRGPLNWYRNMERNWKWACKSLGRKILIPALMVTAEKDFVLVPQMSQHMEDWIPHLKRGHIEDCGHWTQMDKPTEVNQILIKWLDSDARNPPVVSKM
Put plainly: Inhibition of recombinant human full length sEH assessed as reduction in 6-methoxy-2-naphthaldehyde formation using PHOME as substrate preincubated for 30 to 45 mins followed by substrate addition and measured after 30 to 45 mins by fluorescence assay.

The subject of data set [8] is HepG2. Briefly: Cytotoxicity against human HepG2 cells assessed as reduction in ATP level upto 10 uM after 72 hrs by CellTiter-glo luminescence assay. In kind it is cell-based. Particulars: hepg2, 72 h.
A short description of data set [9]: Drug metabolism in rat liver microsomes assessed as metabolite formation after 60 mins by UPLC-MS analysis. Particulars: 1 h. In kind it is ADME, Microsome.
In data set [10] the target is T4, Peroxisome proliferator-activated receptor gamma (Homo sapiens) (UniProt P37231).
T4 sequence (whole entry): T1 sequence (P37231 whole entry)
Put plainly: Partial agonist activity at recombinant sGSF-PPARgamma (unknown origin) assessed as CBP-1 recruitment by HT-FRET assay relative to control.

Data set [11] deals with HepG2. Put plainly: Induction of cell proliferation in human HepG2 cells. In kind it is functional, cell-based. Particulars: dose 2.5-100 µM.
For data set [12], the system named is HepG2. Briefly: Cytotoxicity agianst human HepG2 cells assessed as reduction in cell viability at 30 uM after 48 hrs by WST-1 assay. In kind it is cell-based. Particulars: hepg2, 48 h. In general terms: Formazan colour is commonly taken as a measure of viable cells.

Consider `CS(=O)(=O)Nc1ccc(CNC(=O)c2ccc3c(ccn3Cc3cccc(F)c3)c2)c(C(F)(F)F)c1`, for which the half-life at 10 µM in [1] came to 1.68 h. Moreover, the negative-log EC50 (pEC50) in data set [2] was 6.48; in data set [6], 6.72. Also, the figures for the pIC50 in [3] and in data set [7] were 5.79 and 8.30, respectively. The Activity entry is recorded as “Toxic” with HepG2 [4], “Active” in data set [5] and “Non-Toxic” with HepG2 [8]. Besides, the Drug metabolism result in data set [9] is given as “Metabolite_Detected”. For the same compound, the Emax in data set [10] was found to be 19%.
On to `O=C(NCc1ccc(NS(=O)(=O)C2CC2)cc1C(F)(F)F)c1ccc2c(ccn2Cc2cccc(F)c2)c1`, for which the half-life at 10 µM in [1] worked out at 1.38 h. Further, the results for the pEC50 in data set [2] and in data set [6] were 6.74 and 6.66, respectively. Also, the Activity result in data set [5] was “Active”; with HepG2 [8], “Non-Toxic”; with HepG2 [11], “Dose-dependent effect”; with HepG2 [12], “Non-Toxic”. Also, the Emax in [10] stood at 28%.

Broadly, the half-life is how long it takes for the measured level to halve. In general, pEC50 refers to −log10 of the EC50, conventionally taken in molar units. For orientation: pIC50 means −log10 of the IC50, conventionally taken in molar units.
